Each structure is given as a SMILES string. Read-outs that look alike come from different tables or passages of the source.

For experiment [1], the system named is anesthetized open-chest rats (LCA occlusion/reperfusion). Nature of the experiment: Anesthetized open-chest rats: LCA occlusion 30 min, reperfusion 3 h; infarct size (TTC) with adenosine receptor antagonists with or without postconditioning. The format is in vivo. Particulars: rat. How it is done:
(§1) Adenosine is a mediator of the cardioprotection of postconditioning. Isolated-perfused mouse hearts were subjected to 20 min global ischemia (I) and 30 min reperfusion (R) with or without Postcon (6 cycles of 10 sec. R & occlusion). Intravascular purines in coronary effluent were analyzed by HPLC. To determine whether endogenous adenosine played a physiological role in postconditioning, the left coronary artery (LCA) was occluded for 30 min and reperfused for 3 hours in anesthetized open-chest rats. The rats were randomly divided into six groups (n=8 each): Control (no intervention); postconditioning (3 cycles of 10-s R followed by 10-s LCA I before 3 hours R); 8-SPT (subtype non-selective adenosine receptor antagonist, 10 mg/kg), or ZW241385 (A2a receptor antagonist, 0.2 mg/kg), was given 5 min before R with or without postconditioning. In mouse hearts, postconditioning decreased effluent [adenosine] at 2 min R (58±5* vs 155±16 nM/min/g), and improved contractile function (LV developed pressure 32±7* vs 16±2 mmHg) and end-diastolic pressure (27±3* vs 36±3 mmHg) at 5 min R which persisted at 30 min R. In in vivo rats, postconditioning reduced infarct size (TTC) vs the control group (40±3.1%* vs 52±2.2%). 8-SPT (51±2.5%) or ZM241385 alone (50±2.1%) without postconditioning had no effect on infarct size. The infarct-sparing effect of postconditioning was abrogated by 8-SPT and ZM241385 (50±1.8% and 49±2.6%). Neutrophil (PMN) accumulation (myeloperoxidase activity) in the area at risk was less in postconditioning vs Control (1.0±0.2* vs 2.2±0.4 U/100 g protein); adenosine receptor antagonists blocked the reduction of PMN accumulation in postconditioning (postconditioning+8-SPT 2.1±0.2; postconditioning+ZM241385 1.6+0.2).

Experiment [2] shares this test system. Nature of the experiment: Neutrophil (PMN) accumulation (myeloperoxidase activity) in the area at risk, rat LCA occlusion/reperfusion. Particulars: postconditioning + antagonist, postconditioning 1.0±0.2, Control 2.2±0.4. The format is in vivo. On the procedure: as §1, with “The infarct-sparing effect of postconditioning was abrogated by 8-SPT and ZM241385 (50±1.8% and 49±2.6%). Neutrophil (PMN) accumulation (myeloperoxidase activity) in the area at risk was less in postconditioning vs Control (1.0±0.2* vs 2.2±0.4 U/100 g protein); adenosine receptor antagonists blocked the reduction of PMN accumulation in postconditioning (postconditioning+8-SPT 2.1±0.2; postconditioning+ZM241385 1.6+0.2).” left out

For experiment [3], the system named is rat model of myocardial infarction. Put plainly: Rat model of myocardial infarction: LCA occlusion 30 min, reperfusion 3 h; infarct size with cariporide with or without postconditioning. The format is in vivo. How it is done:
Cross-hatched bar=time when the sodium-hydrogen exchange inhibitor (NHE-1), cariporide is administered intravenously. Vertical hatched bar=postconditioning algorithm. Control (n=8); occlusion of the left coronary artery (LCA) for 30 min (dark bar), was followed by 3 h of reperfusion (open bar). Post-con (n=8); 10 of full reperfusion (R, open bar) and 10 s of re-occlusion ischemia (I, dark bar) were repeated for three cycles. NHE(1) (n=8); cariporide (1 mg/kg) was injected 5 min prior to reperfusion, followed by unbridled R. NHE(1)+Post-con (n=8); cariporide followed by Post-con. Delay (D)-NHE(1) (n=8); cariporide was injected for 5 min after 1 min of full unbridled reperfusion. Post-con+D-NHE(1) (n=8); Post-con followed by injecting cariporide for 5 min. […] Infarct size is expressed as a percentage of AN and AAR. In all groups, infarct size decreased compared to that of Control. […] Post-con=postconditioning. Values are means ±SEM. Postconditioning can be enhanced by pharmacological means which capture the protective actions of the proximal mediators such as adenosine and opioids. In a rat model of myocardial infarction, it can be shown that the dual approach of attenuating reperfusion injury by applying postconditioning in the presence of a sodium-hydrogen exchange (NHE-1) inhibitor during early reperfusion achieves greater infarct size reduction than either intervention alone. Specifically, in an anesthetized rat model, the left coronary artery (LCA) was occluded for 30 min of ischemia (I) and reperfused for 3 hours. Rats were randomly divided into six groups (n=8 each) (FIG. 10): Control: no intervention at reperfusion; Postconditioning: three cycles of 10-s reperfusion followed by 10-s re-occlusion were applied during the first minute of reperfusion; NHE(1): cariporide (1 mg/kg) was infused 5 min before reperfusion, with or without postconditioning; Delayed (D)-NHE(1): a 5-minute infusion of cariporide was begun 1 min after onset of reperfusion equivalent to postconditioning period; Post-con+D-NHE(1): Completion of postconditioning was followed immediately by cariporide infusion for 5 min. […] When NHE(1) preceded postconditioning as a reperfusion intervention, infarct size was not further reduced (45±2%*) compared to either intervention alone. However, an additive reduction in infarct size was achieved when postconditioning preceded NHE(1) inhibitor at reperfusion (Post-con+D-N-HE(1), 34±2%). Thus, infarct size reduction by postconditioning is enhanced by NHE inhibition at reperfusion when postconditioning precedes cariporide administration.

The subject of experiment [4] is rabbit model of myocardial infarction. Particulars: cited from earlier work.
The mark [5] stands for this setting: antagonist alone, given 5 min before reperfusion, without postconditioning, control 52±2.2%.
Where [6] appears, read: antagonist given 5 min before reperfusion, with postconditioning, postconditioning alone 40±3.1%.

`Cn1c(=O)c2[nH]c(-c3ccc(S(=O)(=O)O)cc3)nc2n(C)c1=O` [8-SPT]: the “infarct size (TTC)” value worked out at 51±2.5% in experiment [1] (setting [5]) and 50±1.8% in experiment [1] (setting [6]). The “neutrophil (PMN) accumulation (myeloperoxidase activity) in the area at risk” value in experiment [2] is 2.1±0.2 U/100 g protein.
`Nc1nc(NCCc2ccc(O)cc2)nc2nc(-c3ccco3)nn12` [ZM241385]: the “infarct size (TTC)” value turned out to be 50±2.1% in experiment [1] (setting [5]) and 49±2.6% in experiment [1] (setting [6]). For the same compound, the “neutrophil (PMN) accumulation (myeloperoxidase activity) in the area at risk” value in experiment [2] was 1.6+0.2 U/100 g protein.
For `CC(C)c1ccc(C(=O)NC(=N)N)cc1S(C)(=O)=O` [cariporide], the “infarct size (AN as percentage of AAR)” value was 43±2% in experiment [3] (NHE(1) alone: cariporide 1 mg/kg infused 5 min before reperfusion, no postconditioning); 45±2% in experiment [3] (NHE(1)+Post-con: cariporide 1 mg/kg 5 min before reperfusion, followed by postconditioning); 34±2% in experiment [3] (Post-con+D-NHE(1): postconditioning followed immediately by 5 min cariporide infusion). Besides, the “decrease in infarct size compared with postconditioning alone” value in experiment [3] (Post-con+D-NHE(1) group, FIG. 11) is reported as “significantly greater than postconditioning alone”.
With `FC(F)OC(Cl)C(F)(F)F` (stereo not shown) [isoflurane], the infarct size in experiment [4] (0.5 minimum alveolar concentration isoflurane alone, control 41±2%) is 43±3 % of the left ventricular area at risk; in experiment [4] (1.0 minimum alveolar concentration isoflurane alone, control 41±2%) it was 21±2 % of the left ventricular area at risk; in experiment [4] (combined postconditioning (10 s) and 0.5 minimum alveolar concentration isoflurane), 17±5 % of the left ventricular area at risk.

Source of the values: patent publication US20080097385A1, “Therapeutic Adjuncts to Enhance the Organ Protective Effects of Postconditioning” (priority 2004, published 2008).
